This is an account of results in PubChem BioAssay (NCI).

Broadly, the TGI is the concentration giving total growth inhibition. A low value points to more potent growth arrest. Usually GI50 stands for the concentration at which growth is held to half of that of the control.

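Briefly, cells in 96-well plates were exposed to five compound concentrations for 48 h, and endpoints were estimated by linear interpolation. Here, GI50 denotes the concentration required for 50% inhibition of growth. TGI: total growth inhibition.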

Common to all, as to assay: DTP human tumour cell line panel, 48 h
Assay [1] relates to HOP-18 NSCLC.
The subject of assay [2] is LXFL 529 NSCLC.
Assay [3] concerns M19-MEL melanoma.
Assay [4] deals with SNB-78 CNS.
In assay [5] the test system is XF 498 CNS.
Assay [6] has as its system DMS 273 small cell lung.
Assay [7] deals with MDA-MB-231 breast.
Assay [8] has as its system HS 578T breast.
In assay [9] the test system is BT-549 breast.
In assay [10] the test system is T-47D breast.
The subject of assay [11] is PC-3 prostate.
Assay [12] concerns MCF7 breast.

With `N#C/C(=C/c1ccsc1)C(=O)c1ccccc1`, the TGI in assay [1], in assay [2], in assay [3], in assay [4], in [5] and in [6] was > 100 µM throughout.
In the case of `COC1C(CN[N+](=O)CC2OC3OC(C)(C)OC3C2OC)OC2OC(C)(C)OC21` (configuration not stated), the total growth inhibition concentration (TGI) in [1], in assay [3], in [4] and in assay [6] was > 100 µM throughout.
Turning to `CCCCNC1=C(C(=O)OCC)C(=O)CO1`, the TGI in assay [1], in [2], in [3], in assay [5] and in assay [6] was > 100 µM in each case.
For `CN(C(=O)C12C3C4C1C1C2C3C41C(=O)C(C)(C)C)C(C)(C)C` (configuration not stated), the concentration for total growth inhibition (TGI) in assay [2], in assay [3], in assay [4], in assay [5] and in assay [6] was > 100 µM in each case.
With `CC1OC(n2cc(F)c(=O)[nH]c2=O)CCC1O` (configuration not stated), the TGI in assay [1], in [2], in assay [7], in [3], in [4] and in [8] was > 100 µM throughout. Besides, the concentration for total growth inhibition (TGI) in assay [9] is > 100 µM; in [10] it was > 100 µM; in assay [6], > 100 µM; in assay [11], > 100 µM; in assay [12], > 72.3 µM.
Regarding `CC(=O)Nc1ccccc1Sc1ccccc1`, the total growth inhibition concentration (TGI) in [1], in assay [2], in assay [3], in assay [4], in assay [5] and in assay [6] was > 100 µM in each case.
In the case of `CC1(C)CC(/C=C2/OC(=O)c3ccccc32)=C(C#N)C(=O)O1`, the TGI in assay [2], in [3], in [4], in assay [5] and in assay [6] was > 100 µM throughout.
Consider `COc1ccc2cc1Oc1ccc(cc1)CC1c3cc(c(OC)cc3CCN1C)Oc1c3c(cc4c1C(C2)N(C)CC4)OCO3` (configuration not stated), for which the concentration for total growth inhibition (TGI) in [2] was found to be 25.6 µM; in assay [3], 12.9 µM; in [4], 30.7 µM; in assay [5], 21.6 µM; in assay [6], 17.2 µM.
Consider `COc1cc(C2c3cc4c(cc3C(NCC(O)CO)C3COC(=O)[C@H]23)OCO4)cc(OC)c1OC` (some centres not stated), for which the TGI in assay [1], in assay [2], in assay [3], in assay [4] and in assay [5] was > 100 µM each time.
For the compound `OCCC1(O)CCC(O)CC1` (configuration not stated), the total growth inhibition concentration (TGI) in [1], in assay [2], in assay [3], in assay [4] and in assay [6] was > 100 µM in each case.
Take `N#CC(C(=N/O)/C(=N/O)C(C#N)c1ccc(Cl)cc1)c1ccc(Cl)cc1` (configuration not stated): the concentration for total growth inhibition (TGI) in assay [1], in assay [2], in [3], in assay [4], in assay [5] and in assay [6] was > 100 µM in each case.
Consider `Cc1cc2c(cc1C)[n+](=O)c(C(=O)CC(=O)C(=O)Nc1c(C(C)C)cccc1C(C)C)c(C)n2[O-]`, for which the total growth inhibition concentration (TGI) in assay [1], in assay [2], in [3], in assay [4], in assay [5] and in assay [6] was > 100 µM throughout.
As to `COc1ccc2[nH]c3c(C)c4c(c(C)c3c2c1)CN(C)CC4`, the total growth inhibition concentration (TGI) worked out at 31.3 µM in assay [1]; 36.1 µM in [2]; 31.6 µM in assay [3]; 80.6 µM in assay [4]; 29.6 µM in [6].
`COC(=O)C[C@H]1CCC2(OCCO2)[C@]1(C)C(=O)OC`: the TGI in [2], in [3], in assay [4], in assay [5] and in assay [6] was > 100 µM in each case.
Take `O=C1OCc2c1cc1ccc(O)c(OC3OC(CO)C(O)C(O)C3O)c1c2-c1ccc2c(c1)OCO2` (configuration not stated): the TGI in assay [2], in [3], in [4], in [5] and in [6] was > 100 µM each time. In [3], the GI50 is 38.2 µM.
Turning to `COC(=O)CC(=O)C[P+](c1ccccc1)(c1ccccc1)c1ccccc1`, the total growth inhibition concentration (TGI) was > 218 µM in assay [1]; > 218 µM in assay [2]; > 218 µM in [3]; 201 µM in assay [5]; > 218 µM in [6].
With `COc1ccccc1C1C(C(=O)Nc2ccccc2)=C(C)NC(C)=C1C(=O)Nc1ccccc1`, the TGI in assay [1], in assay [2], in assay [3], in assay [4], in [5] and in [6] was > 100 µM each time.
With `CCOC(=O)NC(=O)c1cn(C2OC(COC(=O)CCCCCCCCC(=O)OCC3OC(n4cc(C(=O)NC(=O)OCC)c(=O)[nH]c4=O)C(O)C3O)C(O)C2O)c(=O)[nH]c1=O` (configuration not stated), the concentration for total growth inhibition (TGI) in assay [1], in assay [2], in assay [3], in assay [4], in [5] and in [6] was > 100 µM in each case.
Turning to `Cc1nc2c(nc1Cl)nc(Oc1ccc(Cl)cc1)c1ccccc12`, the total growth inhibition concentration (TGI) in assay [2], in assay [3], in [4], in assay [5] and in [6] was > 100 µM throughout.
Turning to `CCCCCCCCCCCC(=O)CC(=O)c1c(O)cccc1O`, the TGI in [1] was found to be 36.7 µM; in assay [2] it was 32.2 µM; in assay [3], 34.2 µM; in [4], 41 µM; in assay [5], 33.3 µM; in assay [6], 32.6 µM.
As to `COc1ccc(CNc2cc(OC)c(OC)c(OC)c2)cc1`, the concentration for total growth inhibition (TGI) in assay [1] was > 94.6 µM; in [2], > 100 µM; in assay [3], > 100 µM; in assay [4] it was 32.9 µM; in assay [5] it was > 100 µM; in assay [6] it was > 100 µM.
With `CCN(CC)c1c(C(=O)/C=C/c2ccccc2)c(-c2ccccc2)nn(C)c1=O`, the TGI in assay [2], in assay [3], in assay [5] and in [6] was > 100 µM throughout.
`COC(=O)C1=C(C(=O)OC)C2C=CC1C1C(Cl)=C(Cl)C21` (configuration not stated): the TGI in [1], in assay [2], in assay [3] and in assay [6] was > 100 µM throughout.
`COc1ccc(OC)c(NC(=O)C(=O)C(C(C)=O)c2nc3ccc(Cl)cc3[nH]c2=O)c1` (configuration not stated): the TGI in [1], in [2], in assay [3], in assay [4], in assay [5] and in [6] was > 50 µM throughout.
Turning to `Cc1cc(N(CCOS(C)(=O)=O)CCOS(C)(=O)=O)ccc1C=Nc1ccc(-c2nc(Cc3ccccc3)sc2C)cc1`, the concentration for total growth inhibition (TGI) in assay [1] is 23.4 µM; in [2] it was > 50.3 µM; in assay [7], 26.9 µM; in assay [3], 24.3 µM; in [4] it was 81.2 µM; in assay [8], 34.6 µM. Further, the total growth inhibition concentration (TGI) in [9] was 34.8 µM; in assay [5] it was 9.12 µM; in [10] it was 23.8 µM; in [6], 21.7 µM; in assay [11] it was 22.1 µM; in [12], 49.7 µM.
Regarding `CCCCCCCCCCCCCC(=O)OC1CC(=O)OC1CO` (configuration not stated), the TGI in assay [1] is 92.3 µM; in assay [2] it was > 100 µM; in assay [3], > 100 µM; in assay [4] it was > 100 µM; in assay [5], > 100 µM; in [6] it was > 100 µM.
Consider `N#CC1(Cc2ccc(N)cc2)c2ccccc2C=CN1C(=O)c1ccccc1` (configuration not stated), for which the total growth inhibition concentration (TGI) in [1], in [2], in [3], in assay [4], in assay [5] and in assay [6] was > 100 µM in each case.
`CCCCN(CCCC)C(=O)C(=O)C(C#N)c1ccc(C)cc1` (configuration not stated): the TGI in assay [1], in [2], in assay [3], in assay [4], in [5] and in assay [6] was > 100 µM each time.
On to `OCc1ccc2[n+](c1)CCC1c3ccccc3NC21` (configuration not stated), for which the TGI in assay [2], in assay [3], in assay [5] and in assay [6] was > 300 µM throughout.
As to `Cc1ccc(S(=O)(=O)C(CC(=O)N2CCCC2)C(=O)c2ccccc2)cc1` (configuration not stated), the TGI in assay [1], in assay [2], in assay [4], in assay [5] and in [6] was > 100 µM throughout.
As to `N=C1CSC2=NC3=C(CCC/C3=C\c3ccccc3)C(c3ccccc3)N12` (configuration not stated), the concentration for total growth inhibition (TGI) in assay [2] was 17 µM; in [3] it was 18.3 µM; in assay [4], 23.6 µM; in assay [5], 35.1 µM; in assay [6], 15.8 µM.
As to `COc1ccc2ccc3c(c2c1)CN1CCc2cc(OC)c(OC)cc2C1C3` (configuration not stated), the TGI in assay [1], in [2], in [4], in assay [5] and in assay [6] was > 100 µM in each case.
Regarding `CCOc1ccc2c(c1)[n+]([O-])c(S(=O)(=O)c1ccc(C)cc1)c(N)[n+]2[O-]`, the TGI in [1], in assay [2], in assay [3] and in assay [4] was > 100 µM each time.
Turning to `Clc1ccc(C2N3CCCCC3[C@@H]3c4[nH]c5ccccc5c4CCN23)cc1` (some centres not stated), the TGI in assay [1] was > 100 µM; in assay [2] it was > 100 µM; in assay [3] it was 94.7 µM; in [4], > 100 µM; in assay [5] it was > 100 µM; in assay [6], > 100 µM.
